Measured values: patent publication US20060263344A1, “Novel probiotic compositions and methods of using the same” (priority 2003, published 2006)
pIC50: −log10 of the molar value.

Assays:
[1] = system: lower density lipoproteins (LDL+VLDL); experiment: Inhibition of cupric ion-induced oxidation of lower density lipoproteins (antioxidant activity); format: biochemical, humans; settings: inhibition of lipid peroxide formation in LDL+VLDL, 25 μM cupric ion, 37° C., 6 hours; matrix sample based on CoQ10 conc.
Procedure: A weighed portion (50-500 mg) of solid sample of CoQ10 contained in a glycoprotein matrix was mixed with 5 ml of 50% methanol/water and heated at 90° C. in a plastic screw-capped tube with intermittent shaking for 2 hours to determine the unconjugated (“free”) phenols present. Another weighed portion of the same sample was heated with 5 ml of 1.2 M HCl in 50% aqueous methanol for 2 hours at 90° C. to measure the unconjugated plus conjugated (“total”) phenols. The extracts, each done in duplicate, were then filtered with a 0.45 μm filter and stored at −20° C. until assay. Values for free polyphenols and total phenols for commercial CoQ10 are known.
The phenol content in the extracts was measured by the Folin-Cocialteu reagent (Sigma Chemical Co., St. Louis, Mo.) using catechin (Sigma) as a standard. A blank, catechin standards and samples were added to the Folin reagent in a cuvette and after 20 minutes the color was measured at 720 nm vs. a blank. […]
The amount of lipid peroxides was measured using thiobarbituric acid and fluorometry. The % of inhibition of lipid peroxide formation was calculated vs. a control with no added antioxidants. The IC50 value in μM units was then calculated.
The amount of CoQ10 in the composition of the invention was determined by HPLC using UV detector, C18 column (Perkin Elmer Pecosil 5, 15 cm) and a solvent of 75% methanol and 25% isopropanol. […]

[2] = Stability of CoQ10 in a 50° C. oven open to the air (HPLC); format: physicochemical; settings: for Loss of CoQ10 after 36 days at 50° C. (equivalent to 3 months at room temperature) / Loss of CoQ10 after 72 days at 50° C. (equivalent to 6 months at room temperature): open to the air
Procedure: 100 mg of USP CoQ10 (Sigma) and CoQ10 contained in a glycoprotein matrix from Example 1 was placed in a 10 ml beaker in a 50° C. oven open to the air. The amount of CoQ10 remaining was analyzed by HPLC using a C18 column (Perkin Elmer Pecosil 5, 15 cm) and a solvent of 75% methanol and 25% isopropanol.

Compound: COC1=C(OC)C(=O)C(C/C=C(\C)CC/C=C(\C)CC/C=C(\C)CC/C=C(\C)CC/C=C(\C)CC/C=C(\C)CC/C=C(\C)CC/C=C(\C)CC/C=C(\C)CCC=C(C)C)=C(C)C1=O [CoQ10 (USP), Coenzyme Q10]
- pIC50 [1]: 5.88
- Loss of CoQ10 at 0 days ([2]; 0 days): 0%
- Loss of CoQ10 after 36 days at 50° C. (equivalent to 3 months at room temperature) ([2]; listed as USP CoQ10): 6.8%
- Loss of CoQ10 after 36 days at 50° C. (equivalent to 3 months at room temperature) ([2]; listed as commercial CoQ10): 6.8%
- Loss of CoQ10 after 72 days at 50° C. (equivalent to 6 months at room temperature) ([2]; listed as USP CoQ10): 16.8%
- Loss of CoQ10 after 72 days at 50° C. (equivalent to 6 months at room temperature) ([2]; listed as commercial sample): 16.8%
